Measured values as given in paper PMC8209036, “Structural basis for late maturation steps of the human mitoribosomal large subunit” (Nature Communications, 2021).

Tests used:
[1] = molecular target: T1, GTPBP5 (GTPBP5::FLAG; GTPBP5^IP) (Homo sapiens, UniProt Q9H4K7); test: cryo-EM structure; format: binding; conditions: co-purified, not added; G-domain active site; switch I in state 2, bound to mt-LSU assembly intermediate
T1 construct: gene MTG2; Obg-domain and G-domain
T1 sequence (Q9H4K7 1-406): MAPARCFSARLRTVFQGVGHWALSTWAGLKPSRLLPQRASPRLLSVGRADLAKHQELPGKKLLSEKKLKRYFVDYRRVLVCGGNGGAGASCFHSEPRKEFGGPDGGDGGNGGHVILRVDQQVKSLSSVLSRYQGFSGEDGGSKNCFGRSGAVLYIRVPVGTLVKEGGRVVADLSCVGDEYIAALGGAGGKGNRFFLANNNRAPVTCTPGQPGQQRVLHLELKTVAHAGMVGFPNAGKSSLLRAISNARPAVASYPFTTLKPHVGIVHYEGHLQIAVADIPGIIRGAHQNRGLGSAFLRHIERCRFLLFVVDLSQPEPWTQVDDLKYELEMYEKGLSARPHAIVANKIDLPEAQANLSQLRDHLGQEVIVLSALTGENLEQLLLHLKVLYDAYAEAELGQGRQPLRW

[2] = molecular target: T2, NSUN4 (MTERF4-NSUN4 complex) (Homo sapiens, UniProt Q96CB9); test: cryo-EM structure; format: binding; conditions: no RNA substrate in active site; co-purified, not added; complex bound to mt-LSU assembly intermediates
T2 construct: with Transcription termination factor 4, mitochondrial
T2 sequence (Q96CB9 26-384): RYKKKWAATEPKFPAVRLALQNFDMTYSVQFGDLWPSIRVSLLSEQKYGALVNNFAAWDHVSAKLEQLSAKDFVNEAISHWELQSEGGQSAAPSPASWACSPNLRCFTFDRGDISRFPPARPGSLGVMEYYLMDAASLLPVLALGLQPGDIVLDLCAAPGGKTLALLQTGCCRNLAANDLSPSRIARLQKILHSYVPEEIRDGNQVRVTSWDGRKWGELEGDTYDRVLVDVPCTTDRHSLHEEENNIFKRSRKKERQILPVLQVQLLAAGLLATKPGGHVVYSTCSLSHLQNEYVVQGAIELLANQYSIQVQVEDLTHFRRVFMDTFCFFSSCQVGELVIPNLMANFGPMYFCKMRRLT
T2 sequence (Q7Z6M4 43-381 partner): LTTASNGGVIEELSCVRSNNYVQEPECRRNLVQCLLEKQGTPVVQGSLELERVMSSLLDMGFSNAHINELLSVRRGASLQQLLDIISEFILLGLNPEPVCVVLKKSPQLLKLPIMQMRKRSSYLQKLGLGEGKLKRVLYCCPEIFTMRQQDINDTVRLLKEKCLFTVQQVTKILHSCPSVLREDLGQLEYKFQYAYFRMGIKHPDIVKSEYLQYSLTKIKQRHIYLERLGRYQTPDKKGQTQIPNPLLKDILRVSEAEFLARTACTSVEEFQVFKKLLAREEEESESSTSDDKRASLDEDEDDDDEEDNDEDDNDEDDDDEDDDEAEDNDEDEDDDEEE

SMILES	cryo-EM structure [1]	cryo-EM structure [2]
Nc1nc2c(ncn2[C@@H]2O[C@H](COP(=O)(O)OP(=O)(O)OP(=O)(O)O)[C@@H](O)[C@H]2O)c(=O)[nH]1 [GTP]	In our GTPBP5^IP structure, the G-domain has GTP in its active site	
C[S+](CC[C@H](N)C(=O)O)C[C@H]1O[C@@H](n2cnc3c(N)ncnc32)[C@H](O)[C@@H]1O (some centres unmarked) [S-adenosyl-methionine]		the methyl-donor S-adenosyl-methionine (SAM) is observed in the NSUN4 active site
